Data on 21 molecules can be found in US12404289B2 (Gilead Sciences, Inc., priority 2020, dated 2025).

Where two headings read alike, the source gives them in different places.

Holding throughout (format): cell-based
For assay [1], the system named is Respiratory syncytial virus (RSV) strain A2. Briefly: Hep-2 RSV2 384-well assay (EC50-HEP2-384). Particulars: HEp-2 cells, RSV A2, MOI=4, 4 days, Table 3.
For assay [2] the test system is unchanged. Briefly: RSV antiviral assay (HEp-2, 96 well). Particulars: Table 3.
Another assay concerns SARS-CoV-2. Briefly: SARS-CoV-2 antiviral assay (A549-hACE2, Nano luciferase). Particulars: Table 4.
Where [3] appears, read: read-out: EC50 RSV HEP2 96, HEp-2 cells, RSV A2, MOI=4, 4 days, 96 well.
The mark [4] stands for this setting: Severe acute respiratory syndrome coronavirus 2, 48 h, A549-hACE2 cells, SARS-CoV2-Nano, MOI 0.025, 48 h, read-out: EC50 SARS CoV2.
Where [5] appears, read: human respiratory syncytial virus, HEp-2, 96 h, read-out: EC50 RSV HEP2 96, HEp-2 cells, RSV A2, MOI=4, 4 days, 96 well.
Where [6] appears, read: A549-hACE2 cells, SARS-CoV2-Nano, MOI 0.025, 48 h, read-out: EC50 SARS CoV2.

The molecule `C[C@H](NP(=O)(OC[C@H]1O[C@@](C#N)(c2ccc3c(N)ncnn23)[C@H](O)[C@@H]1O)Oc1ccc(C(C)(C)C)cc1)C(=O)OC1CCC1` (single isomer, unassigned) [Example 31b] yielded an EC50 in assay [1] of 41.1 nM.
As to `CC(=O)O[C@H]1[C@@H](OC(C)=O)[C@](C#N)(c2ccc3c(N)ncnn23)O[C@@H]1COP(=O)(N[C@@H](C)C(=O)OC1CCC1)Oc1ccc(C2CC2)cc1` (single isomer, unassigned) [Example 53b], the results for the EC50 (in assay [2] (setting [3]); in the assay on SARS-CoV-2 (setting [4])) were 21.2 nM and 103 nM, respectively.
With `CCC(=O)O[C@H]1[C@@H](OC(=O)CC)[C@](C#N)(c2ccc3c(N)ncnn23)O[C@@H]1COP(=O)(N[C@@H](C)C(=O)OC1CCC1)Oc1ccc(C2CC2)cc1` (single isomer, unassigned) [Example 54a], the EC50 in assay [2] (setting [5]) was found to be 13.1 nM; with SARS-CoV-2 (setting [4]), 102 nM.
On to `CCC(=O)O[C@H]1[C@@H](OC(=O)CC)[C@](C#N)(c2ccc3c(N)ncnn23)O[C@@H]1COP(=O)(N[C@@H](C)C(=O)OC1CCC1)Oc1ccc(C2CC2)cc1` (single isomer, unassigned) [Example 54b], for which the values for the 50% effective concentration (EC50) (in assay [2] (setting [3]); in the assay on SARS-CoV-2 (setting [6])) were 20.9 nM and 164 nM, respectively.
Take `CCC(CC)COC(=O)[C@H](C)NP(=O)(OC[C@H]1O[C@@](C#N)(c2ccc3c(N)ncnn23)[C@H](OC(C)=O)[C@@H]1OC(C)=O)Oc1cccc2ccccc12` (single isomer, unassigned) [Example 78a]: the EC50 turned out to be 65.2 nM in assay [2] (setting [3]) and 117 nM in the assay on SARS-CoV-2 (setting [6]).
For the molecule `CCC(=O)O[C@H]1[C@@H](OC(=O)CC)[C@](C#N)(c2ccc3c(N)ncnn23)O[C@@H]1COP(=O)(N[C@@H](C)C(=O)OCC(CC)CC)Oc1cccc2ccccc12` (single isomer, unassigned) [Example 79a], the EC50 worked out at 61.2 nM in assay [2] (setting [3]) and 126 nM in the assay with SARS-CoV-2 (setting [6]).
For the molecule `CCC(=O)O[C@H]1[C@@H](OC(=O)CC)[C@](C#N)(c2ccc3c(N)ncnn23)O[C@@H]1COP(=O)(N[C@@H](C)C(=O)OC1CC2(CCC2)C1)Oc1cccc2ccccc12` (single isomer, unassigned) [Example 87a], the EC50 in assay [2] (setting [3]) was 31.1 nM; with SARS-CoV-2 (setting [6]) it was 60.2 nM.
As for `C[C@H](NP(=O)(OC[C@H]1O[C@@](C#N)(c2ccc3c(N)ncnn23)[C@H](O)[C@@H]1O)Oc1cccc2ccccc12)C(=O)OC1CCC1` (single isomer, unassigned) [Intermediate P7a-2], the concentration for a half-maximal effect (EC50) in assay [2] (setting [3]) came out at 65.1 nM; with SARS-CoV-2 (Severe acute respiratory syndrome coronavirus 2, 48 h, read-out: EC50 SARS CoV2, A549-hACE2 cells, SARS-CoV2-Nano, MOI 0.025, 48 h) it was 275 nM.
For the molecule `C[C@H](NP(=O)(OC[C@H]1O[C@@](C#N)(c2ccc3c(N)ncnn23)[C@H](O)[C@@H]1O)Oc1ccc(C(C)(C)C)cc1)C(=O)OCC1CCC1` (stereo partly drawn) [Example 59, cyclobutylmethyl (2S)-2-[[[(2R,3S,4R,5R)-5-(4-aminopyrrolo[2,1-f][1,2,4]triazin-7-yl)-5-cyano-3,4-dihydroxy-tetrahydrofuran-2-yl]methoxy-(4-tert-butylphenoxy)phosphoryl]amino]propanoate], the EC50 amounted to 25.3 nM in assay [2] (setting [5]) and 160 nM in the assay on SARS-CoV-2 (setting [4]).
As for `CC(C)C(=O)O[C@H]1[C@@H](OC(=O)C(C)C)[C@](C#N)(c2ccc3c(N)ncnn23)O[C@@H]1COP(=O)(N[C@@H](C)C(=O)OCC1CCC1)Oc1ccc(C(C)(C)C)cc1` (stereo partly drawn) [Example 60, [(2R,3R,4R,5R)-5-(4-aminopyrrolo[2,1-f][1,2,4]triazin-7-yl)-2-[[(4-tert-butylphenoxy)-[[(1S)-2-(cyclobutylmethoxy)-1-methyl-2-oxo-ethyl]amino]phosphoryl]oxymethyl]-5-cyano-4-(2-methylpropanoyloxy)tetrahydrofuran-3-yl] 2-methylpropanoate], the 50% effective concentration (EC50) in assay [2] (setting [5]) was found to be 64 nM; in the assay on SARS-CoV-2 (setting [4]), 180 nM.
For `CC(C)C(=O)O[C@H]1[C@@H](OC(=O)C(C)C)[C@](C#N)(c2ccc3c(N)ncnn23)O[C@@H]1COP(=O)(N[C@@H](C)C(=O)OC1CC2(CCC2)C1)Oc1ccc(C(C)(C)C)cc1` (stereo partly drawn) [Example 66, [(2R,3R,4R,5R)-5-(4-aminopyrrolo[2,1-f][1,2,4]triazin-7-yl)-2-[[(4-tert-butylphenoxy)-[[(1S)-1-methyl-2-oxo-2-spiro[3.3]heptan-2-yloxy-ethyl]amino]phosphoryl]oxymethyl]-5-cyano-4-(2-methylpropanoyloxy)tetrahydrofuran-3-yl] 2-methylpropanoate], the half-maximal effective concentration (EC50) in assay [2] (setting [5]) came to 61.9 nM; in the assay on SARS-CoV-2 (setting [4]) it was 207 nM.
As to `CCC(CC)COC(=O)[C@H](C)NP(=O)(OC[C@H]1O[C@@](C#N)(c2ccc3c(N)ncnn23)[C@H](OC(=O)C(C)C)[C@@H]1OC(=O)C(C)C)Oc1cccc2ccccc12` (stereo partly drawn) [Example 70, [(2R,3R,4R,5R)-5-(4-aminopyrrolo[2,1-f][1,2,4]triazin-7-yl)-5-cyano-2-[[[[(1S)-2-(2-ethylbutoxy)-1-methyl-2-oxo-ethyl]amino]-(1-naphthyloxy)phosphoryl]oxymethyl]-4-(2-methylpropanoyloxy)tetrahydrofuran-3-yl] 2-methylpropanoate], the EC50 in assay [2] (setting [5]) worked out at 49 nM; in the assay with SARS-CoV-2 (setting [4]), 319 nM.
With `CCC(=O)O[C@H]1[C@@H](OC(=O)CC)[C@](C#N)(c2ccc3c(N)ncnn23)O[C@@H]1COP(=O)(N[C@@H](C)C(=O)OC1CCC1)Oc1ccccc1` (stereo partly drawn) [Example 107, (2R,3R,4R,5R)-2-(4-aminopyrrolo[2,1-f][1,2,4]triazin-7-yl)-2-cyano-5-((((((S)-1-cyclobutoxy-1-oxopropan-2-yl)amino)(phenoxy)phosphoryl)oxy)methyl)tetrahydrofuran-3,4-diyl Dipropionate], the figures for the 50% effective concentration (EC50) (in assay [2] (setting [5]); in the assay with SARS-CoV-2 (setting [4])) were 20.1 nM and 180 nM, respectively.
As to `CCOC(=O)[C@H](C)NP(=O)(OC[C@H]1O[C@@](C#N)(c2ccc3c(N)ncnn23)[C@H](OC(=O)CC)[C@@H]1OC(=O)CC)Oc1ccc(C(C)(C)C)cc1` (stereo partly drawn) [Example 108, (2R,3R,4R,5R)-2-(4-aminopyrrolo[2,1-f][1,2,4]triazin-7-yl)-5-((((4-(tert-butyl)phenoxy)(((S)-1-ethoxy-1-oxopropan-2-yl)amino)phosphoryl)oxy)methyl)-2-cyanotetrahydrofuran-3,4-diyl Dipropionate], the concentration giving a half-maximal response (EC50) in assay [2] (setting [5]) was determined as 27.7 nM; in the assay on SARS-CoV-2 (setting [4]) it was 82.9 nM.
`CCC(=O)O[C@H]1[C@@H](OC(=O)CC)[C@](C#N)(c2ccc3c(N)ncnn23)O[C@@H]1COP(=O)(N[C@@H](C)C(=O)OC)Oc1ccc(C(C)(C)C)cc1` (stereo partly drawn) [Example 113, (2R,3R,4R,5R)-2-(4-aminopyrrolo[2,1-f][1,2,4]triazin-7-yl)-5-((((4-(tert-butyl)phenoxy)(((S)-1-methoxy-1-oxopropan-2-yl)amino)phosphoryl)oxy)methyl)-2-cyanotetrahydrofuran-3,4-diyl Dipropionate]: the values for the EC50 (in assay [2] (setting [5]); with SARS-CoV-2 (setting [4])) were 22.1 nM and 126 nM, respectively.
Consider `CC(C)COC(=O)[C@H](C)NP(=O)(OC[C@H]1O[C@@](C#N)(c2ccc3c(N)ncnn23)[C@H](O)[C@@H]1O)Oc1ccc(C(C)(C)C)cc1` (stereo partly drawn) [Example 118, isobutyl ((((2R,3S,4R,5R)-5-(4-aminopyrrolo[2,1-f][1,2,4]triazin-7-yl)-5-cyano-3,4-dihydroxytetrahydrofuran-2-yl)methoxy)(4-(tert-butyl)phenoxy)phosphoryl)-L-alaninate], for which the EC50 worked out at 23.5 nM in assay [2] (setting [5]) and 329 nM in the assay with SARS-CoV-2 (setting [4]).
Turning to `CCC(C)(C)COC(=O)[C@H](C)NP(=O)(OC[C@H]1O[C@@](C#N)(c2ccc3c(N)ncnn23)[C@H](O)[C@@H]1O)Oc1ccc(C(C)(C)C)cc1` (stereo partly drawn) [Example 121, 2,2-dimethylbutyl ((((2R,3S,4R,5R)-5-(4-aminopyrrolo[2,1-f][1,2,4]triazin-7-yl)-5-cyano-3,4-dihydroxytetrahydrofuran-2-yl)methoxy)(4-(tert-butyl)phenoxy)phosphoryl)-L-alaninate], the EC50 amounted to 23.5 nM in assay [2] (setting [5]) and 110 nM in the assay with SARS-CoV-2 (setting [4]).
As for `C[C@H](NP(=O)(OC[C@H]1O[C@@](C#N)(c2ccc3c(N)ncnn23)[C@H](O)[C@@H]1O)Oc1ccccc1)C(=O)OCCC(C)(C)C` (stereo partly drawn) [Intermediate P8a, 3,3-dimethylbutyl ((((2R,3S,4R,5R)-5-(4-aminopyrrolo[2,1-f][1,2,4]triazin-7-yl)-5-cyano-3,4-dihydroxytetrahydrofuran-2-yl)methoxy)(phenoxy)phosphoryl)-L-alaninate], in assay [2] (setting [5]), the concentration giving a half-maximal response (EC50) turned out to be 20.3 nM.
Regarding `CCOC(=O)[C@H](C)NP(=O)(OC[C@H]1O[C@@](C#N)(c2ccc3c(N)ncnn23)[C@H](O)[C@@H]1O)Oc1cccc2ccccc12` (stereo partly drawn) [Intermediate S1, ethyl (2S)-2-[[[(2R,3S,4R,5R)-5-(4-aminopyrrolo[2,1-f][1,2,4]triazin-7-yl)-5-cyano-3,4-dihydroxy-tetrahydrofuran-2-yl]methoxy-(1-naphthyloxy)phosphoryl]amino]propanoate], the values for the EC50 (in assay [2] (setting [5]); with SARS-CoV-2 (setting [4])) were 93.3 nM and 714 nM, respectively.
For the molecule `CCC(CC)COC(=O)[C@H](C)NP(=O)(OC[C@H]1O[C@@](C#N)(c2ccc3c(N)ncnn23)[C@H](O)[C@@H]1O)Oc1cccc2ccccc12` (stereo partly drawn) [Intermediate S2, 2-Ethylbutyl ((((2R,3S,4R,5R)-5-(4-aminopyrrolo[2,1-f][1,2,4]triazin-7-yl)-5-cyano-3,4-dihydroxytetrahydrofuran-2-yl)methoxy)(naphthalen-1-yloxy)phosphoryl)-L-alaninate], the EC50 in assay [2] (setting [5]) was 84.8 nM; in the assay on SARS-CoV-2 (setting [4]) it was 207 nM.
Turning to `CCC(C)(C)CCOC(=O)[C@H](C)NP(=O)(OC[C@H]1O[C@@](C#N)(c2ccc3c(N)ncnn23)[C@H](O)[C@@H]1O)Oc1ccccc1` (stereo partly drawn) [Intermediate S4, 3,3-dimethylpentyl ((((2R,3S,4R,5R)-5-(4-aminopyrrolo[2,1-f][1,2,4]triazin-7-yl)-5-cyano-3,4-dihydroxytetrahydrofuran-2-yl)methoxy)(phenoxy)phosphoryl)-L-alaninate], the EC50 in assay [2] (setting [5]) was 14.9 nM.
